Source: PMC7114283 (Antiviral Research, 2010)
Read-outs that look alike come from different tables or passages of the source. Marks after values point to notes of the source that are not given here.

Tests used:
TGEV [1] = test system: TGEV
TGEV 3CLpro = TGEV 3CLpro (Porcine transmissible gastroenteritis coronavirus, UniProt P0C6Y5); format: biochemical, transmissible gastroenteritis virus
SARS CoV 3CLpro = SARS CoV 3CLpro (Severe acute respiratory syndrome coronavirus, UniProt P0C6X7); format: biochemical
SARS CoV Urbani strain [2] = test system: SARS CoV Urbani strain
[3] = male, Sprague-Dawley, rat, in vivo, 3 mg/kg
in vivo = conditions: male, Sprague-Dawley, rat, 3 mg/kg
in vitro = conditions: swine
TGEV [4] = test: microbe, parasite or virus in culture; conditions: Alphacoronavirus 1
SARS CoV Urbani strain [5] = format: cell-based, human severe acute respiratory syndrome coronavirus
Vero 76 cells [6] = test system: Vero 76 cells
Vero 76 cells [7] = test system: Vero 76 cells; remark: listed apart in the source

TGEV 3CLpro, sequence (P0C6Y5 2879-3180 limits assumed): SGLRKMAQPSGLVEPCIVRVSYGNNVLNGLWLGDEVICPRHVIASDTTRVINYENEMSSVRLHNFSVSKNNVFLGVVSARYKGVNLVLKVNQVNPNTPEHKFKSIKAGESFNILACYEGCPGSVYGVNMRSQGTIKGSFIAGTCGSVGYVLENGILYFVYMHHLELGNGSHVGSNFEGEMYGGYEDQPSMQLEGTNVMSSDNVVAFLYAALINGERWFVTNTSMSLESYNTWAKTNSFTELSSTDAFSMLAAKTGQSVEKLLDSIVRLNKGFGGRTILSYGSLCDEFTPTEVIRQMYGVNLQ

Compound: 3,14a-dihydroxy-6,7-dimethoxyphenanthroindolizidine [Compound 1h]
- EC50 (TGEV [1]): 18 ± 1 nM
- SI (CC50/EC50) (TGEV [1]): 1719
- CC50 (ST cells): 31.6 µM

Compound: COc1cc2c3c(c4cc(OC)c(OC)cc4c2cc1OC)CN1CCC[C@@H]1C3 [1a′, tylophorine]
- EC50 (TGEV [1]): 95 ± 17 nM
- SI (CC50/EC50) (TGEV [1]): >1053
- CC50 (ST cells; swine): > 100 µM

Compound: COc1cc2c3c(c4cc(OC)c(OC)cc4c2cc1OC)CN1CCC[C@@H]1C3 [Compound 1a, Tylophorine]
- Inhibition of TGEV 3CLpro enzymatic activity (TGEV 3CLpro): did not significantly inhibit
- Inhibition of SARS CoV 3CLpro enzymatic activity (SARS CoV 3CLpro): did not significantly inhibit
- SI (CC50/EC50) (TGEV [1]): >1715
- Visual assay SI (CC50/EC50) (SARS CoV Urbani strain [2]): 88
- Ctrough ([3]; iv): 1.1 ng/mL
- t1/2 (apparent elimination half-life) ([3]; iv): 3.9 ^b h
- Ctrough ([3]; po): 3.0 ng/mL
- bioavailability (in vivo): 65.7%
- AUC(0-inf) (in vivo; iv): 772 ng·h/mL
- clearance (in vivo; iv): 66.8 mL/min/kg
- AUC(0-inf) (in vivo; po): 507 ng·h/mL
- Cmax (in vivo; po): 31.9 ng/mL
- Tmax (in vivo; po): 1.8 h
- CC50 (in vitro): > 100 µM
- EC50 (TGEV [4]): 58 ± 4 nM

Compound: COc1ccc2c3c(c4cc(OC)c(OC)cc4c2c1)CN1CCC[C@H]1[C@@H]3O [Compound 1e, tylophorinine]
- SI (CC50/EC50) (TGEV [1]): >1220
- CC50 (in vitro): > 100 µM
- EC50 (TGEV [4]): 82 ± 8 nM

Compound: interferon alfacon-1 [Infergen™]
- Neutral red uptake assay EC50 (SARS CoV Urbani strain [5]): 2.4 µg/mL
- Visual assay EC50 (SARS CoV Urbani strain [2]): <0.32 µg/mL
- Visual assay SI (CC50/EC50) (SARS CoV Urbani strain [2]): >320
- Visual assay CC50 (Vero 76 cells [6]): >100 µg/mL
- Neutral red uptake assay CC50 (Vero 76 cells [7]): >130 µg/mL
